Laboratory results as given in EP0975604B1, “PYRIDAZINONES AS INHIBITORS OF CYCLOOXYGENASE-2” (MERCK FROSST CANADA & CO., priority 1997, dated 1998).

Assays:
COX-1 [1] = target: T1, COX-1 (Homo sapiens, UniProt P23219); assay: Assay of COX-1 activity from U937 cell microsomes; assay type: biochemical; design: endogenous in cells; host or cells: U937 cells, 100,000 x g microsomal pellet; conditions: PGE2, read-out: COX-1 (IC50 µM) U-937
Description: U 937 cells are pelleted by centrifugation at 500 x g for 5 min and washed once with phosphate-buffered saline and repelleted. Cells are resuspended in homogenization buffer consisting of 0.1 M Tris-HCl, pH 7.4, 10 mM EDTA, 2 µg/ml leupeptin, 2 µg/ml soybean trypsin inhibitor, 2 µg/ml aprotinin and 1 mM phenyl methyl sulfonyl fluoride. The cell suspension is sonicated 4 times for 10 sec and is centrifuged at 10,000 x g for 10 min at 4° C. The supernatant is centrifuged at 100,000 x g for 1 hr at 4 °C. The 100,000 x g microsomal pellet is resuspended in 0.1 M Tris-HCl, pH 7.4, 10 mM EDTA to approximately 7 mg protein/ml and stored at -80° C.
Assays are performed in duplicate in a final volume of 250 µl. Initially, 5 µl of DMSO vehicle or drug in DMSO are added to 20 µl of 0.1 M Tris-HCl buffer, pH 7.4 containing 10 mM EDTA in wells of a 96-deepwell polypropylene titre plate. 200 µl of the microsomal preparation are then added and pre-incubated for 15 min at room temperature before addition of 25 µl of […] arachidonic acid in […] Tris-HCl and 10 mM EDTA, pH 7.4. Samples are incubated for 40 min at room temperature and the reaction is stopped by the addition of 25 µl of 1 N HCl. Samples are neutralized with 25 µl of 1 N NaOH prior to quantitation of PGE2 content by radioimmunoassay (Dupont-NEN or Amersham assay kits). Cyclooxygenase activity is defined as the difference between PGE2 levels in samples incubated in the presence of arachidonic acid and ethanol vehicle.
(§1) In the assay, inhibition is determined by measuring the amount of prostaglandin E2 (PGE2) synthesized in the presence of arachidonic acid, cyclooxygenase-1 or cyclooxygenase-2 and a putative inhibitor.

COX-2 [2] = target: T2, COX-2 (Homo sapiens, UniProt P35354); assay: Human whole blood assay, COX-2 (LPS-induced PGE2 production); assay type: cell-based; conditions: 24 hours at 37°C, read-out: COX-2 (IC50 µM) HWB
T2 construct: endogenous in cells; host or cells: fresh heparinized human whole blood from volunteers, induced with LPS
T2 sequence (P35354 18-604): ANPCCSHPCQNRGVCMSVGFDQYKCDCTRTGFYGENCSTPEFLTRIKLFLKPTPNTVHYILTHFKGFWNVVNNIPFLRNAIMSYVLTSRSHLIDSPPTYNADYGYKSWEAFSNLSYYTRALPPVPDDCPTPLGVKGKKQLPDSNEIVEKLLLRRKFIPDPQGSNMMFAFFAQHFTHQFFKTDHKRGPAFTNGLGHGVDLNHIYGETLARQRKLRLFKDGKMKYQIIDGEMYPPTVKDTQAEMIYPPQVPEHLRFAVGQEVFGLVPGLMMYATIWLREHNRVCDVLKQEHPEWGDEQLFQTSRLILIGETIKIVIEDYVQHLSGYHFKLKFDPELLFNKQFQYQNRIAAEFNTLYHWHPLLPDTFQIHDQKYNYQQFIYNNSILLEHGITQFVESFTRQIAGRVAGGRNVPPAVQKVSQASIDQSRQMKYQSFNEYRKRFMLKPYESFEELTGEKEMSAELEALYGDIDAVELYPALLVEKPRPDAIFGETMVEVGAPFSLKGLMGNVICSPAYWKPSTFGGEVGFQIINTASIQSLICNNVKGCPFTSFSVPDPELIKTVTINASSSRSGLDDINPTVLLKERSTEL
From the text: (§2) As well, platelets in whole blood contain a large amount of the COX-1 enzyme. Immediately following blood clotting, platelets are activated through a thrombin-mediated mechanism. This reaction results in the production of thromboxane B2 (TxB2) via activation of COX-1. Thus, the effect of test compounds on TxB2 levels following blood clotting can be examined and used as an index for COX-1 activity. Therefore, the degree of selectivity by the test compound can be determined by measuring the levels of PGE2 after LPS induction (COX-2) and TxB2 following blood clotting (COX-1) in the same assay.
Fresh blood is collected in heparinized tubes by venipuncture from both male and female volunteers. The subjects have no apparent inflammatory conditions and have not taken any NSAIDs for at least 7 days prior to blood collection. Plasma is immediately obtained from a 2mL blood aliquot to use as blank (basal levels of PGE2).

COX-2 [3] = target: T2, COX-2; assay: Whole cell assay for COX-2 using CHO transfected cell line (CHO [hCOX-2]); assay type: cell-based; conditions: CHO[hCOX-2] cells, 10 µM AA, PGE2 synthesis
Description: Chinese hamster ovary (CHO) cell lines which have been stably transfected with an eukaryotic expression vector pCDNAIII containing either the human COX-1 or COX-2 cDNA's are used for the assay. These cell lines are referred to as CHO [hCOX-1] and CHO [hCOX-2], respectively. […] Cells (0.3 x 10^6 cells in 200 µl) are preincubated with 3 µl of the test drug or DMSO vehicle for 15 min at 37°C. […] Cells are then challenged in the presence or absence of drug with the AA/HBSS solution to yield a final concentration of 0.5 µM AA in the CHO[hCOX-1] assay and a final concentration of 10 µM AA in the CHO[hCOX-2] assay. […] The samples are centrifuged at 300 x g at 4°C for 10 min, and an aliquot of the clarified supernatant is appropriately diluted for the determination of PGE2 levels using an enzyme-linked immunoassay for PGE2 (Correlate PGE2 enzyme immunoassay kit, Assay Designs, Inc.). Cyclooxygenase activity in the absence of test compounds is determined as the difference in PGE2 levels of cells challenged with arachidonic acid versus the PGE2 levels in cells mock-challenged with ethanol vehicle. Inhibition of PGE2 synthesis by test compounds is calculated as a percentage of the activity in the presence of drug versus the activity in the positive control samples.
as §1

COX-1 [4] = target: T1, COX-1; assay: Human whole blood assay, COX-1 (clotting-induced TxB2 production); assay type: cell-based; design: endogenous in cells; host or cells: platelets in fresh human whole blood left to clot; conditions: 1 hour at 37°C, read-out: COX-1 (IC50 µM) HWB
Description: as §2, with “Human whole blood provides a protein and cell-rich milieu appropriate for the study of biochemical efficacy of anti-inflammatory compounds such as selective COX-2 inhibitors. […] This is consistent with the observation that COX-2 inhibitors have no effect on PGE2 production in normal blood. These inhibitors are active only after incubation of human whole blood with LPS, which induces COX-2. This assay can be used to evaluate the inhibitory effect of selective COX-2 inhibitors on PGE2 production. As” for “As”
Fresh blood is collected into vacutainers containing no anticoagulants. Aliquots of 500µL are immediately transferred to siliconized microcentrifuge tubes preloaded with 2µL of either DMSO or a test compound at final concentrations varying from 10nM to 30µM. […]

T1 sequence (P23219 24-599): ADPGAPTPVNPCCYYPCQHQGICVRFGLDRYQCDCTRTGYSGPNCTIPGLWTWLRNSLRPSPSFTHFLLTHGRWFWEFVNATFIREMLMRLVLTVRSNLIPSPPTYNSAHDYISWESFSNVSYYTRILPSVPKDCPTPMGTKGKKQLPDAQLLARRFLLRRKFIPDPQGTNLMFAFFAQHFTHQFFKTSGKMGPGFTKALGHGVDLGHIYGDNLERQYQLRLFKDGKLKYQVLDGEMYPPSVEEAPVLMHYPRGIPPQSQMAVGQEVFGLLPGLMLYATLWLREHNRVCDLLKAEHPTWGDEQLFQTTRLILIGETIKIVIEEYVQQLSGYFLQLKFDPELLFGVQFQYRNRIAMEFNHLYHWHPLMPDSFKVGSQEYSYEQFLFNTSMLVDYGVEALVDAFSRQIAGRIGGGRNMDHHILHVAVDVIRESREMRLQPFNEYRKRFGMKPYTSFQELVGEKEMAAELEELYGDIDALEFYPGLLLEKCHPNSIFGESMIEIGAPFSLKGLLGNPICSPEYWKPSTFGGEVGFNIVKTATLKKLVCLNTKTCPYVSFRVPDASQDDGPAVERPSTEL

Row | Compound | IC50 (COX-1 [1]) [µM] | IC50 (COX-2 [2]) [µM] | IC50 (COX-2 [3]) [µM] | IC50 (COX-1 [4]) [µM]
1 | CS(=O)(=O)c1ccc(-c2cnn(Cc3ccccc3)c(=O)c2-c2ccc(F)c(F)c2)cc1 [Example 9, 2-Benzyl-4-(3,4-difluorophenyl)-5-(4-methylsulfonyl)phenyl-2H-pyridazin-3-one] | 3 to 10 | 1.9 | 0.04 | –
2 | CS(=O)(=O)c1ccc(-c2cnn(Cc3ccc(F)cc3)c(=O)c2-c2ccccc2)cc1 [Example 10, 2-(4-Fluorobenzyl)-5-(4-methylsulfonyl)phenyl-4-phenyl-2H-pyridazin-3-one] | > 10 | 0.9 | 0.17 | –
3 | CS(=O)(=O)c1ccc(-c2cnn(CC3CC3)c(=O)c2-c2ccccc2)cc1 [Example 3, 2-Cyclopropylmethyl-5-(4-methylsulfonyl)phenyl-4-phenyl-2H-pyridazin-3-one] | > 10 | 1.3 | 0.07 | –
4 | CS(=O)(=O)c1ccc(-c2cnn(CC3CC3)c(=O)c2-c2ccc(F)c(F)c2)cc1 [Example 7, 2-Cyclopropylmethyl-4-(3,4-difluorophenyl)-5-(4-methylsulfonyl)phenyl-2H-pyridazin-3-one] | > 10 | 3.2 | 0.16 | –
5 | Cn1ncc(-c2ccc(S(C)(=O)=O)cc2)c(-c2ccccc2)c1=O [Example 2, 2-Methyl-5-(4-methylsulfonyl)phenyl-4-phenyl-2H-pyridazin-3-one] | – | 21 | 0.7 | –
6 | COC(=O)Cn1ncc(-c2ccc(S(C)(=O)=O)cc2)c(-c2ccccc2)c1=O [Example 11, 2-Carbomethoxymethyl-5-(4-methylsulfonyl)phenyl-4-phenyl-2H-pyridazin-3-one] | > 10 | 9.2 | 5 | –
7 | CC(C)n1ncc(-c2ccc(S(C)(=O)=O)cc2)c(-c2ccccc2)c1=O [Example 6, 2-Isopropyl-5-(4-methylsulfonyl)phenyl-4-phenyl-2H-pyridazin-3-one] | > 10 | 2.6 | 0.6 | –

Further lines, results first:

Row | IC50 (COX-1 [1]) [µM] | IC50 (COX-2 [2]) [µM] | IC50 (COX-2 [3]) [µM] | IC50 (COX-1 [4]) [µM] | Compound
8 | > 10 | – | – | > 50 | CS(=O)(=O)c1ccc(-c2cnn(Cc3ccccc3)c(=O)c2-c2ccccc2)cc1 [Example 5, 2-Benzyl-5-(4-methylsulfonyl)phenyl-4-phenyl-2H-pyridazin-3-one]
9 | > 10 | > 33 | ~2 | – | CS(=O)(=O)c1ccc(-c2cnn(Cc3ccccn3)c(=O)c2-c2ccccc2)cc1 [Example 8, 5-(4-Methylsulfonyl)phenyl-4-phenyl-2-(2-pyridylmethyl)-2H-pyridazin-3-one]
10 | > 10 | 11.1 | 0.5 | – | CS(=O)(=O)c1ccc(-c2cnn(CC(F)(F)F)c(=O)c2-c2ccccc2)cc1 [Example 4, 5-(4-Methylsulfonyl)phenyl-4-phenyl-2-(2,2,2-trifluoroethyl)-2H-pyridazin-3-one]
11 | – | 4.7 | 0.08 | – | CS(=O)(=O)c1ccc(-c2cnn(-c3ccccc3)c(=O)c2-c2ccccc2)cc1 [Example 1, 5-(4-Methylsulfonyl)phenyl-2-phenyl-4-phenyl-2H-pyridazin-3-one]
12 | 3 to 10 | – | – | – | CS(=O)(=O)c1ccc(-c2cnn(Cc3ccccc3)c(=O)c2-c2ccc(F)cc2)cc1 [Example 12, 2-Benzyl-4-(4-fluorophenyl)-5-(4-methylsulfonyl)phenyl-2H-pyridazin-3-one]
